Reference: US20140249135A1, “PIM KINASE INHIBITORS AND METHODS OF THEIR USE” (NOVARTIS AG, priority 2007, published 2014)
Like-named read-outs stand apart in the source and are kept apart here.

Columns and labels:
Pim1 kinase = Pim1 kinase (Homo sapiens, UniProt P11309); experiment: Pim1 ATP depletion assay; assay type: biochemical;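 also: Luciferase-luciferin luminescence readout of residual ATP after PIM1 transfers phosphate to a peptide substrate, 40 µM ATP added, reaction run to roughly half ATP consumption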
Sequence of Pim1 kinase (P11309 whole entry): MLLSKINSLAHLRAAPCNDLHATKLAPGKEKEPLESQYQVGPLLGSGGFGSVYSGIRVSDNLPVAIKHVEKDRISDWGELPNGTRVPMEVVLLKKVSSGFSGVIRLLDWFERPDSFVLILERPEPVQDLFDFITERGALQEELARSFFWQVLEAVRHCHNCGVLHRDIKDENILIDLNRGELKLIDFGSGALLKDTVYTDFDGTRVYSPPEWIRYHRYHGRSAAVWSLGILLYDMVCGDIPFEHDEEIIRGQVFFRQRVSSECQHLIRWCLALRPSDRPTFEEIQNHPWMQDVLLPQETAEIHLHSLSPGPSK

Pim2 kinase = Pim2 kinase (Homo sapiens, UniProt Q9P1W9); experiment: Pim2 ATP depletion assay; assay type: biochemical; details: read-out: IC50 (μM) PIM2;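 also: Luciferase-based luminescent readout of ATP remaining after PIM2 phosphorylates a BAD peptide, final 5 nM enzyme, 4 µM ATP, 10 µM peptide, 2.5% DMSO, run to roughly half ATP consumption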
Sequence of Pim2 kinase (Q9P1W9 whole entry): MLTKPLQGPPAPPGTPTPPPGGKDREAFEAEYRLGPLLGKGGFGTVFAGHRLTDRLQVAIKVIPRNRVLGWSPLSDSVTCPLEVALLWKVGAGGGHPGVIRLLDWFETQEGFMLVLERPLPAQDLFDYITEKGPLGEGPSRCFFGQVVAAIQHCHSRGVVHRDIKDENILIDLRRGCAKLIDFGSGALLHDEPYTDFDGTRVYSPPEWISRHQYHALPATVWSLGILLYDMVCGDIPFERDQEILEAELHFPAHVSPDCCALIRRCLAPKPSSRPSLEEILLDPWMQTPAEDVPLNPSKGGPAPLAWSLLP

HEL 92.1.7 cells = experiment: Cell proliferation assay (CellTiter-Glo), HEL 92.1.7; assay type: cell-based; details: Homo sapiens, read-out: EC50 (μM) HEL 92.1.7
Procedure, shortened: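 CellTiter-Glo luminescence was read after 3-day compound exposure at 37 °C of cells plated at 1000/well in RPMI1640 with 10% FBS. Signal was normalised between DMSO-treated and control-compound-treated wells. EC50 is the concentration giving 50% of maximal effect.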

KDR kinase = KDR kinase (Homo sapiens, UniProt P35968); experiment: KDR AlphaScreen assay; details: KDR IC50 (μM)
Sequence of KDR kinase (P35968 20-1356): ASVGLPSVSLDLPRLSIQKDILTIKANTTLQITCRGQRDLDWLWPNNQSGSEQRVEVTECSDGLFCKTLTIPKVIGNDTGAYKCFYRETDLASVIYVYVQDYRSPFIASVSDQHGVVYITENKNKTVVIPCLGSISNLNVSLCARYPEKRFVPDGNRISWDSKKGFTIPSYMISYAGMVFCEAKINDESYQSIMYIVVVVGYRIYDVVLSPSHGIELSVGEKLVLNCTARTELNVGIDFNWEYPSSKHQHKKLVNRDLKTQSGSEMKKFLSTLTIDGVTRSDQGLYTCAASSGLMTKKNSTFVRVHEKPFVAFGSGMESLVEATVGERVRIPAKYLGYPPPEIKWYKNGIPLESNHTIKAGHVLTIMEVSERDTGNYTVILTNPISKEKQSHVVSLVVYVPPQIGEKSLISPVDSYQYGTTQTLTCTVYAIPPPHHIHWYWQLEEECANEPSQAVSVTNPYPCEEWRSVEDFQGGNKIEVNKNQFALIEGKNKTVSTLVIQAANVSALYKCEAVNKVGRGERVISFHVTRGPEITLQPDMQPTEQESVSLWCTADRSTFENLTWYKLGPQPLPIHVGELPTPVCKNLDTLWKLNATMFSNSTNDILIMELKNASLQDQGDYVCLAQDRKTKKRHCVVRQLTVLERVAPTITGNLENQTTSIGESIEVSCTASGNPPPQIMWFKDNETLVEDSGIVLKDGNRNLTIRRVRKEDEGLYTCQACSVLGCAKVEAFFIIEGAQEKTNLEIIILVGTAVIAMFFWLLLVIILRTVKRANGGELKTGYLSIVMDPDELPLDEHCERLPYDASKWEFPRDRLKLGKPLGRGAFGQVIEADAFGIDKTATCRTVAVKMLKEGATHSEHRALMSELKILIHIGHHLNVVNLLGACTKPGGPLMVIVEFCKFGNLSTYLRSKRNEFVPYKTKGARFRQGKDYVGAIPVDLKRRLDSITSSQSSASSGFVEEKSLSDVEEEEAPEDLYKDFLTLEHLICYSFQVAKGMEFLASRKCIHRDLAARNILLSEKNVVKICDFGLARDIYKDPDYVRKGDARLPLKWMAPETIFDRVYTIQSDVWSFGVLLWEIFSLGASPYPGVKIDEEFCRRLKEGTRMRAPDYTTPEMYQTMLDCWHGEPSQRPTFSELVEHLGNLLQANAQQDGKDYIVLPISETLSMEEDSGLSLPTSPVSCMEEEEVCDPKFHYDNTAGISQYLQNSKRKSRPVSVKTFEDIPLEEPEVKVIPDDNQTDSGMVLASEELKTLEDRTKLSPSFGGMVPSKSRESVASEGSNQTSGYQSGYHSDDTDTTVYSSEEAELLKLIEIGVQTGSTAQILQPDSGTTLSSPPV

Pim3 kinase = Pim3 kinase (Homo sapiens, UniProt Q86V86); experiment: Pim3 ATP depletion assay; assay type: biochemical; details: read-out: IC50 (μM) PIM3
[1] = biological target: T1, human full length PKCE enzyme (Homo sapiens, UniProt Q02156); experiment: In vitro PKCE assay; assay type: biochemical; details: 10 nM enzyme, 40 uM peptide substrate, 20 uM ATP, KinaseGlo Plus readout; read-out: PKCε IC50
T1 construct: human full length PKCE enzyme purchased from InVitrogen; purchased InVitrogen
T1 sequence (Q02156 1-737): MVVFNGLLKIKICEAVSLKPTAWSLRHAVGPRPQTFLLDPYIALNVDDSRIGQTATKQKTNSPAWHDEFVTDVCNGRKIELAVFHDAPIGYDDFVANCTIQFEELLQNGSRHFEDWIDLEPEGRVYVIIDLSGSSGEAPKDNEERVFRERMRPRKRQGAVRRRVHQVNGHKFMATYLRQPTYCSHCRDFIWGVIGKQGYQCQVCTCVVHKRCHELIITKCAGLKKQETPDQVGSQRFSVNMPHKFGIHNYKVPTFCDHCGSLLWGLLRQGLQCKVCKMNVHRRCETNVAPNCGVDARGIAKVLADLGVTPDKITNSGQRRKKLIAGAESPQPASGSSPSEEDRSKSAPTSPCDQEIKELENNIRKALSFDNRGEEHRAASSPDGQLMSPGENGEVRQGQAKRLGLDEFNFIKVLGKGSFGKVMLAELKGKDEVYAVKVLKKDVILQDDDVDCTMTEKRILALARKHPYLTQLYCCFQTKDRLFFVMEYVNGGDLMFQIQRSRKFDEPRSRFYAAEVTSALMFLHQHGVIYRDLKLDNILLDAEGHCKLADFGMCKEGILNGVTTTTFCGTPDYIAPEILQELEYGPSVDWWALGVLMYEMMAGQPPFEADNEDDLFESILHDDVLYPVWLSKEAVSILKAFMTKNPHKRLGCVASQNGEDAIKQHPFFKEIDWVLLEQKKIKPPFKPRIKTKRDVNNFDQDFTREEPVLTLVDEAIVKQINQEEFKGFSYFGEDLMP

[2] = Pim1 ATP depletion assay, read-out: IC50 (μM) PIM1

Row | Compound | IC50 (Pim1 kinase; [2]) [µM] | IC50 (Pim2 kinase) [µM] | EC50 (HEL 92.1.7 cells) [µM] | IC50 (KDR kinase) [µM] | IC50 (Pim3 kinase) [µM] | IC50 [1] [nM] | IC50 (Pim1 kinase) [µM]
1 | N#Cc1ccccc1-c1ccc(N)c(C(=O)Nc2cnccc2N2CCC[C@H](N)C2)n1 [Example 332, 3-amino-6-(2-cyano-phenyl)-pyridine-2-carboxylic acid ((S)-3-amino-3,4,5,6-tetra-hydro-2H-[1,4′]bipyridinyl-3′-yl)-amide] | < 1 | < 1 | 1 to 5 | > 25 | < 1 | 1000 to 10000 | –
2 | Nc1nc(N)c(C(=O)Nc2[nH]c(=O)ncc2N2CCC(C(F)(F)F)CC2)nc1Cl [Example 159, 3,5-diamino-6-chloro-N-{2-oxo-5-[4-(trifluoromethyl)piperidin-1-yl]-2,3-dihydropyrimidin-4-yl}pyrazine-2-carboxamide] | < 1 | < 1 | 5 to 10 | < 1 | < 1 | > 25000 | –
3 | Nc1nc(N)c(-c2ccccc2Cl)nc1C(=O)Nc1cnccc1N1CCCC(N)C1 (centres unmarked) [Example 342, 3,5-diamino-6-(2-chloro-phenyl)-pyrazine-2-carboxylic acid (3-amino-3,4,5,6-tetra-hydro-2H-[1,4′]bipyridinyl-3′-yl)-amide] | < 1 | < 1 | < 1 | 1 to 10 | < 1 | 1000 to 10000 | –
4 | COc1ccccc1-c1nc(C(=O)Nc2cnccc2N2CCCC(N)C2)c(N)nc1N (centres unmarked) [Example 344, 3,5-diamino-6-(2-methoxy-phenyl)-pyrazine-2-carboxylic acid (3-amino-3,4,5,6-tetra-hydro-2H-[1,4′]bipyridinyl-3′-yl)-amide] | < 1 | < 1 | > 10 | > 25 | < 1 | 10000 to 25000 | –
5 | NCC1CCCN(c2ccncc2NC(=O)c2nccnc2N)C1 (centres unmarked) [Example 184, 3-amino-N-{4-[3-(aminomethyl)-piperidin-1-yl]pyridin-3-yl}pyrazine-2-carboxamide] | – | 1 to 10 | < 1 | 10 to 25 | < 1 | < 1000 | < 1
6 | Nc1cccnc1C(=O)Nc1ccncc1N1CCCC(N)C1 (centres unmarked) [Example 174, 3-amino-N-[3-(3-aminopiperidin-1-yl)pyridin-4-yl]pyridine-2-carboxamide] | < 1 | < 1 | > 10 | > 25 | < 1 | 1000 to 10000 | –
7 | Nc1nc(N)c(C(=O)Nc2[nH]c(=O)ncc2N2CCCC(F)C2)nc1Cl (centres unmarked) [Example 160, 3,5-diamino-6-chloro-N-[5-(3-fluoropiperidin-1-yl)-2-oxo-2,3-dihydropyrimidin-4-yl]pyrazine-2-carboxamide] | < 1 | < 1 | > 10 | – | < 1 | > 25000 | –
8 | Nc1ncc(-c2cncnc2)nc1C(=O)Nc1cnccc1N1CCCC(N)C1 (centres unmarked) [Example 357, 3-amino-6-pyrimidin-5-yl-pyrazine-2-carboxylic acid (3-amino-3,4,5,6-tetrahydro-2H-[1,4′]bipyridinyl-3′-yl)-amide] | < 1 | < 1 | 1 to 5 | – | < 1 | 1000 to 10000 | –
9 | Nc1nc(N)c(C(=O)Nc2[nH]c(=O)ncc2N2CCC(F)CC2)nc1Cl [Example 151, 3,5-diamino-6-chloro-N-[5-(4-fluoropiperidin-1-yl)-2-oxo-2,3-dihydropyrimidin-4-yl]pyrazine-2-carboxamide] | < 1 | < 1 | > 10 | – | < 1 | > 25000 | –
10 | Nc1ncc(-c2cn[nH]c2)nc1C(=O)Nc1cnccc1N1CCCC(N)C1 (centres unmarked) [Example 355, 3-amino-6-(1H-pyrazol-4-yl)-pyrazine-2-carboxylic acid (3-amino-3,4,5,6-tetrahydro-2H-[1,4′]bipyridinyl-3′-yl)-amide] | < 1 | < 1 | > 10 | – | < 1 | 1000 to 10000 | –
